# Source: EP4603105A1, “PHARMACEUTICAL COMPOSITION CONTAINING CYCLIC COMPOUND HAVING SELECTIVE KRAS INHIBITORY EFFECT AGAINST HRAS AND NRAS” (CHUGAI SEIYAKU KABUSHIKI KAISHA, priority 2022, dated 2024)
# Read-outs that look alike come from different tables or passages of the source.
# Tests used:
# [1] = molecular target: GDP-bound KRAS wild-type protein (Homo sapiens, UniProt P01116); experiment: Binding to KRAS by surface plasmon resonance (SPR), dissociation constant KD
# Procedure, shortened: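 Each cycle, GDP-bound biotin-Avi RAS was captured (~100–300 RU), compound concentrations were injected low to high for 75 s each at 100 µL/min, then the chip was regenerated. Buffer: HBS pH 7.4, 10 mM MgCl2, 10 µM GDP, 1 mM DTT, 4% DMSO; 30°C. KD from a 1:1 binding model.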
# [2] = molecular target: GDP-bound NRAS wild-type protein (Homo sapiens, UniProt P01111); experiment: Binding to NRAS by surface plasmon resonance (SPR), KD and KD ratio to KRAS
# Procedure, shortened: (§1)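 Affinity is measured by surface plasmon resonance at 30°C against captured, GDP-loaded RAS carrying a biotinylated Avi tag. Compounds are titrated by single-cycle kinetics, and KD comes from a 1:1 fit.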
# [3] = molecular target: HRAS wild-type protein (Homo sapiens, UniProt P01112); experiment: Binding to HRAS by surface plasmon resonance (SPR), KD and KD ratio to KRAS
# Procedure, shortened: as §1
# [4] = system: human lung cancer strain NCI-H441; experiment: NCI-H441 cell proliferation inhibitory activity (CellTiter-Glo, 4 days); type: cell-based; conditions: read-out: NCl-H441 IC50
# Procedure, shortened: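 Readout: […] after the ATP-based reagent. Compound: serial dilutions in dimethyl sulfoxide.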
# [5] = ratio of KD for GDP-bound NRAS wild-type protein to KD for KRAS
# [6] = ratio of KD for HRAS wild-type protein to KD for KRAS
# [7] = Single Cycle Kinetics, 1:1 binding model
# [8] = ratio of KD with respect to GDP-bound NRAS wild-type protein to KD with respect to KRAS
# [9] = ratio of KD with respect to HRAS wild-type protein to KD with respect to KRAS
# [10] = 50% proliferation inhibitory concentration, four days
# Chain of GDP-bound KRAS wild-type protein (P01116 1-188 isoform P01116-2): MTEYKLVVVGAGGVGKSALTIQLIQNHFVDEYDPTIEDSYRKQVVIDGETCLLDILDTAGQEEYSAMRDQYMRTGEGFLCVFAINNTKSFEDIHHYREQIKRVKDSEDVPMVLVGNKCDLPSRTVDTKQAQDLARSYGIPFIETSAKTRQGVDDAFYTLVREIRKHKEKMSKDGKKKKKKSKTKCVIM
# Chain of GDP-bound NRAS wild-type protein (P01111 whole entry): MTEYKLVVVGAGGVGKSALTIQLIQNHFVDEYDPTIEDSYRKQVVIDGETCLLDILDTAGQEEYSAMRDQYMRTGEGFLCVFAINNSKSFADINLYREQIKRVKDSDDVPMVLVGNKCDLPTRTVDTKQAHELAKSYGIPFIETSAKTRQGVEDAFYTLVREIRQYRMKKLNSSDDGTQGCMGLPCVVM
# Chain of HRAS wild-type protein (P01112 whole entry): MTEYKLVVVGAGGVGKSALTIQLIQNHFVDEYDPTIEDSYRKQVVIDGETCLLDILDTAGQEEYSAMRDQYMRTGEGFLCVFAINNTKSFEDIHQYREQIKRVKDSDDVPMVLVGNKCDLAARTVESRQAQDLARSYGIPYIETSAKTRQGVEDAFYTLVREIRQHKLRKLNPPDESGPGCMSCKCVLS
Kd ([1]; Single Cycle Kinetics),"IC50 ([4]; NCI-H441 cells, 4 days)",Kd ([1]; 1:1 binding model),"Kd [1, 7]","IC50 [4, 10]",SMILES,"NRAS /KRAS [2, 5]","HRAS /KRAS [3, 6]","NRAS /KRAS [2, 8]","HRAS /KRAS [3, 9]"
3.8 nM,73.8 nM,–,–,–,CCCO[C@@H]1C[C@H]2C(=O)NC3(CC(C)(C)C3)C(=O)N(C)[C@@H](C3CCCC3)C(=O)N(C)[C@H](C(=O)N(C)CC)CC(=O)N(C)[C@@H](COCC)C(=O)N[C@@H]([C@@H](C)CC)C(=O)N3C[C@@H](C)C[C@H]3C(=O)N(C)[C@H]3C/C=C\CCN(C3=O)[C@@H](Cc3ccc(C(F)(F)F)cc3)C(=O)N(C)CC(=O)N[C@@H](CCc3ccc(C(F)(F)F)c(Cl)c3)C(=O)N2C1 [PP3407],A (a compound having 10 or more and less than 20 is denoted as A),A (a compound having 10 or more and less than 20 is denoted as A),–,–
0.37 nM,15.2 nM,–,–,–,CCO[C@@H]1C[C@H]2C(=O)NC3(CCCC3)C(=O)N(C)[C@@H](C3CCCC3)C(=O)N(C)[C@H](C(=O)N(C)C)CC(=O)N(C)[C@@H]([C@@H](C)OC)C(=O)N[C@@H]([C@@H](C)CC)C(=O)N(C3CC3)CC(=O)N(C)[C@H]3C/C=C\CCN(C3=O)[C@@H](Cc3ccc(C(F)(F)F)cc3)C(=O)N(C)CC(=O)N[C@@H](CCc3cc(F)c(C(F)(F)F)c(F)c3)C(=O)N2C1 [PP3476],A (a compound having 10 or more and less than 20 is denoted as A),A (a compound having 10 or more and less than 20 is denoted as A),–,–
–,13.9 nM,0.4 nM,–,–,CCC[C@H]1C(=O)N[C@@H]([C@@H](C)CC)C(=O)N(C2CC2)CC(=O)N(C)[C@H]2C/C=C\CCN(C2=O)[C@@H](Cc2ccc(C)cc2)C(=O)N(C)CC(=O)N[C@@H](CCc2ccc(C(F)(F)F)c(OC)c2)C(=O)N2C[C@H](OCC)C[C@H]2C(=O)NC2(CC(C)(C)C2)C(=O)N(C)[C@@H](CC(C)(C)C)C(=O)N(C)[C@H](C(=O)N(C)C)CC(=O)N1C [PP2722],B (a compound having 3 or more and less than 10 is denoted as B),B (a compound having 3 or more and less than 10 is denoted as B),–,–
–,5.3 nM,0.12 nM,–,–,CCOC[C@H]1C(=O)N[C@@H]([C@@H](C)CC)C(=O)N(C)CC(=O)N(C)[C@H]2C/C=C\CCN(C2=O)[C@@H](Cc2ccc(C)cc2)C(=O)N(C)CC(=O)N[C@@H](CCc2ccc(C(F)(F)F)c(Cl)c2)C(=O)N2C[C@H](OCC)C[C@H]2C(=O)NC2(CC(C)(C)C2)C(=O)N(C)[C@@H](C2CCCC2)C(=O)N(C)[C@H](C(=O)N(C)CC)CC(=O)N1C [PP2401],A (a compound having 10 or more and less than 20 is denoted as A),A (a compound having 10 or more and less than 20 is denoted as A),–,–
–,96.7 nM,0.28 nM,–,–,CC[C@H](C)[C@@H]1NC(=O)[C@H](COC)N(C)C(=O)C[C@@H](C(=O)N(C)C)N(C)C(=O)[C@H](C2CCCC2)N(C)C(=O)C2(CC(C)(C)C2)NC(=O)[C@@H]2C[C@H](C)CN2C(=O)[C@H](CCc2ccc(C(F)(F)F)c(OC)c2)NC(=O)CN(C)C(=O)[C@H](Cc2ccc(C)cc2)N2CC/C=C\C[C@@H](C2=O)N(C)C(=O)[C@@H]2C[C@H](OC)CN2C1=O [PP2390],A (a compound having 10 or more and less than 20 is denoted as A),B (a compound having 3 or more and less than 10 is denoted as B),–,–
–,–,–,0.35 nM,21.4 nM,CCO[C@@H]1C[C@H]2C(=O)NC3(CCC3)C(=O)N(C)[C@@H](C(CC)CC)C(=O)N(C)[C@H](C(=O)N(C)C)CC(=O)N(C)[C@@H](CC3CC3)C(=O)N[C@@H]([C@@H](C)CC)C(=O)N(C)CC(=O)N(C)[C@H]3C/C=C\CCN(C3=O)[C@@H](Cc3ccc(C(F)(F)F)cc3)C(=O)N(C)CC(=O)N[C@@H](CCc3ccc(Cl)c(Cl)c3)C(=O)N2C1 [PP1219],–,–,AA (a compound having 20 or more is denoted as AA),A (a compound having 10 or more and less than 20 is denoted as A)
0.16 nM,8.2 nM,–,–,–,CCO[C@@H]1C[C@H]2C(=O)OC3(CCC3)C(=O)N(C)[C@@H](C3CCCC3)C(=O)N(C)[C@H](C(=O)N(C)C)CC(=O)N(C)[C@@H](CC(C)C)C(=O)N[C@@H]([C@@H](C)CC)C(=O)N(C)CC(=O)N(C)[C@H]3C/C=C\CCN(C3=O)[C@@H](Cc3ccc(C(F)(F)F)cc3)C(=O)N(C)CC(=O)N[C@@H](CCc3ccc(C(F)(F)F)c(OC)c3)C(=O)N2C1 [PP3364],A (a compound having 10 or more and less than 20 is denoted as A),A (a compound having 10 or more and less than 20 is denoted as A),–,–
2.6 nM,48.7 nM,–,–,–,CC[C@H](C)[C@@H]1NC(=O)[C@H](CC(C)C)N(C)C(=O)C[C@@H](C(=O)N(C)C)N(C)C(=O)[C@H](C2CCCC2)N(C)C(=O)C2(CCCC2)NC(=O)[C@@H]2CCN2C(=O)[C@H](CCc2cc(F)c(C(F)(F)F)c(F)c2)NC(=O)CN(C)C(=O)[C@H](Cc2ccc(C)cc2)N2CC/C=C(/F)C[C@@H](C2=O)N(C)C(=O)CN(C)C1=O [PP3522],B (a compound having 3 or more and less than 10 is denoted as B),B (a compound having 3 or more and less than 10 is denoted as B),–,–
–,–,–,0.43 nM,33.5 nM,CCO[C@@H]1C[C@H]2C(=O)NC3(CCC3)C(=O)N(C)[C@@H](C3CCCC3)C(=O)N(C)[C@H](C(=O)N3CCOCC3)CC(=O)N(C)[C@@H](Cc3ccc(Cl)c(Cl)c3)C(=O)N[C@@H]([C@@H](C)CC)C(=O)N(C)CC(=O)N(C)[C@H]3CCCCCN(C3=O)[C@@H](Cc3ccc(F)cc3)C(=O)N(C)CC(=O)N[C@@H](CCc3cc(F)c(C(F)(F)F)c(F)c3)C(=O)N2C1 [PP1188],–,–,B (a compound having 3 or more and less than 10 is denoted as B),B (a compound having 3 or more and less than 10 is denoted as B)
0.13 nM,5.4 nM,–,–,–,CCC[C@H]1C(=O)N[C@@H]([C@@H](C)CC)C(=O)N(C)CC(=O)N(C)[C@H]2C/C=C\CCN(C2=O)[C@@H](Cc2ccc(C)cc2)C(=O)N(C)CC(=O)N[C@@H](CCc2ccc(C(F)(F)F)c(OC)c2)C(=O)N2CC3(CC3)C[C@H]2C(=O)N(C)C2(CCC2)C(=O)N(C)[C@@H](C(CC)CC)C(=O)N(C)[C@H](C(=O)N(C)C)CC(=O)N1C [PP3292],A (a compound having 10 or more and less than 20 is denoted as A),A (a compound having 10 or more and less than 20 is denoted as A),–,–
0.22 nM,3.4 nM,–,–,–,CCC[C@H]1C(=O)N[C@@H]([C@@H](C)CC)C(=O)N(C2CC2)CC(=O)N(C)[C@H]2C/C(F)=C\CCN(C2=O)[C@@H](Cc2ccc(C)cc2)C(=O)N(C)CC(=O)N[C@@H](CCc2ccc(C(F)(F)F)c(OC)c2)C(=O)N2C[C@H](OCC)C[C@H]2C(=O)N(C)C2(CCC2)C(=O)N(C)[C@@H](C2CCCC2)C(=O)N(C)[C@H](C(=O)N(C)C)CC(=O)N1C [PP3525],B (a compound having 3 or more and less than 10 is denoted as B),B (a compound having 3 or more and less than 10 is denoted as B),–,–
3 nM,24.3 nM,–,–,–,CCCO[C@@H]1C[C@H]2C(=O)NC3(CC(C)(C)C3)C(=O)N(C)[C@@H](C3CCCC3)C(=O)N(C)[C@H](C(=O)N(C)CC)CC(=O)N(C)[C@@H](COCC)C(=O)N[C@@H]([C@@H](C)CC)C(=O)N3C[C@@H](C)C[C@H]3C(=O)N(C)[C@H]3C/C=C\CCN(C3=O)[C@@H](Cc3ccc(C(F)(F)F)cc3)C(=O)N(C)CC(=O)N[C@@H](CCc3cc(F)c(C(F)(F)F)c(F)c3)C(=O)N2C1 [PP3472],A (a compound having 10 or more and less than 20 is denoted as A),A (a compound having 10 or more and less than 20 is denoted as A),–,–
–,32.3 nM,0.59 nM,–,–,CCO[C@@H]1C[C@H]2C(=O)NC3(CC(C)(C)C3)C(=O)N(C)[C@@H](C(CC)CC)C(=O)N(C)[C@H](C(=O)N(C)C)CC(=O)N(C)[C@@H](COC)C(=O)N[C@@H]([C@@H](C)CC)C(=O)N(C)CC(=O)N(C)[C@H]3C/C=C\CCN(C3=O)[C@@H](CC3CCC(F)(F)CC3)C(=O)N(C)CC(=O)N[C@@H](CCc3ccc(C(F)(F)F)c(Cl)c3)C(=O)N2C1 [PP2444],A (a compound having 10 or more and less than 20 is denoted as A),A (a compound having 10 or more and less than 20 is denoted as A),–,–
1.8 nM,24.8 nM,–,–,–,CCO[C@@H]1C[C@H]2C(=O)OC3(CCC3)C(=O)N(C)[C@@H](C3CCCC3)C(=O)N(C)[C@H](C(=O)N(C)C)CC(=O)N(C)[C@@H](CC(C)C)C(=O)N[C@@H]([C@@H](C)CC)C(=O)N(C3CC3)CC(=O)N(C)[C@H]3C/C=C\CCN(C3=O)[C@@H](Cc3ccc(C(F)(F)F)cc3)C(=O)N(C)CC(=O)N[C@@H](CCc3ccc(C(F)(F)F)c(OC)c3)C(=O)N2C1 [PP3363],A (a compound having 10 or more and less than 20 is denoted as A),B (a compound having 3 or more and less than 10 is denoted as B),–,–
–,–,–,0.23 nM,11.5 nM,CCO[C@@H]1C[C@H]2C(=O)NC3(CCC3)C(=O)N(C)[C@@H](C3CCCC3)C(=O)N(C)[C@H](C(=O)N3CCOCC3)CC(=O)N(C)[C@@H](CC)C(=O)N[C@@H]([C@@H](C)CC)C(=O)N3CC[C@H]3C(=O)N(C)[C@H]3CC[C@@H](C)CN(C3=O)[C@@H](Cc3ccc(C(F)(F)F)cc3)C(=O)N(C)CC(=O)N[C@@H](CCc3ccc(C(F)(F)F)c(Cl)c3)C(=O)N2C1 [PP1375],–,–,B (a compound having 3 or more and less than 10 is denoted as B),B (a compound having 3 or more and less than 10 is denoted as B)
